Assay results: patent US20060128724A1, “Pyrazole-substituted aminoheteroaryl compounds as protein kinase inhibitors” (AGOURON PHARMACEUTICALS, INC., priority 2004, published 2006)

Biological target: T1, c-MET (HGFR) (Homo sapiens, UniProt P08581)
T1 construct: purchased Upstate 14-526
Assay: HGFR Continuous-Coupled Spectrophotometric Assay
Type: biochemical
Settings: Met-2 substrate peptide, 50 nM HGFR, 37° C.; read-out: c-Met Ki
Text: The following in vitro assay may be used to determine the level of activity and effect of the different compounds of the present invention on one or more of the PKs. Similar assays can be designed along the same lines for any PK using techniques well known in the art.
The general procedure is as follows: compounds and kinase assay reagents are introduced into test wells. The assay is initiated by addition of the kinase enzyme. Enzyme inhibitors reduce the measured activity of the enzyme.
In the continuous-coupled spectrophotometric assay the time-dependent production of ADP by the kinase is determined by analysis of the rate of consumption of NADH by measurement of the decrease in absorbance at 340 nm. As the PK produces ADP it is re-converted to ATP by reaction with phosphoenol pyruvate and pyruvate kinase. Pyruvate is also produced in this reaction. Pyruvate is subsequently converted to lactate by reaction with lactate dehydrogenase, which simultaneously converts NADH to NAD.
HGFR Continuous-Coupled Spectrophotometric Assay
This assay analyzes the tyrosine kinase activity of HGFR on the Met-2 substrate peptide, a peptide derived from the activation loop of the HGFR.
• 1. […] Dissolve up in 200 mM HEPES, pH 7.5 at 10 mM stock. • 3. 1 M PEP (phospho-enol-pyruvate) in 200 mM HEPES, pH 7.5 • 4. 100 mM NADH (B-Nicotinamide Adenine Dinucleotide, Reduced Form) in 200 mM HEPES, pH 7.5 • 5. 4 M MgCl2 (Magnesium Chloride) in ddH2O • 6. 1 M DTT (Dithiothreitol) in 200 mM HEPES, pH 7.5 • 7. 15 Units/mL LDH (Lactic Dehydrogenase) • 8. 15 Units/mL PK (Pyruvate Kinase) • 9. 5M NaCl dissolved in ddH2O • 10. Tween-20 (Protein Grade) 10% Solution • 11. 1 M HEPES buffer: (N-[2-Hydroxethyl]piperazine-N-[2-ethanesulfonic acid]) Sodium Salt. Dissolve in ddH2O, adjust pH to 7.5, bring volume to 1 L. Filter at 0.1 μm. • 12. […] 100% DMSO (SIGMA) • 14. […] Beckman DU-650 w/micro cell holders • 18. Beckman 4-position micro cell cuvette Procedure:
Prep Dilution Buffer (DB) for Enzyme (For 30 mL prep) • 1. DB final concentration is 2 mM DTT, 25 mM NaCl2, 5 mM MgCl2, 0.01% Tween-20, and 50 mM HEPES buffer, pH 7.5. • 2. Make up 50 mM HEPES by adding 1.5 mL 1 M HEPES into 28.1 mL of ddH2O. Add rest of the reagents. Into 50 mL conical vial, add 60 μL of 1M DTT, 150 μL 5M NaCl2, 150 μL 1M MgCl2, and 30 μL of 10% Tween-20 to give total volume of 30 mL. • 3. […] Aliquot out DB at 1 mL/tube and label tubes as “DB HGFR” • 5. Note: This can be prepared and stored ahead of time. • 6. Freeze un-used aliquots in microcentrifuge tubes at −20° C. freezer. […] For compound dilution plate, add 4 μL of 10 mM stock into column 1 of plate, and bring volume to 100 μL with 100% DMSO. • 2. Set up the Precision 2000 dilution method. A final concentration of 200 μM compound in 50% DMSO, 100 mM HEPES (1:2 serial dilution). Prep Coupled Enzymatic Buffer:
1. Final concentration in assay:
• 2. For a 10 mL reaction buffer add 10 μL of 1M PEP, 33 μL of 100 mM NADH, 50 μL of 4M MgCl2, 20 μL of 1M DTT, 6 μL of 500 mM ATP, and 500 μL of 10 mM Met-2 peptide into 100 mM HEPES buffer pH 7.5 and vortex/mix. • 3. Add coupling enzymes, LDH and PK, into reaction mix. Mix by gentle inversion. Running Samples
1. Spectrophotometer settings:
• 2. Add 85 μL of CE reaction mix into each well of assay plate. • 3. Add 5 μL of diluted compound into a well of the assay plate. • 4. Add 5 μL of 50% DMSO for negative control into last column of assay plate. • 5. Mix with multi-channel pipettor or orbital shaker. • 6. Pre-incubate for 10 minutes at 37° C. • 7. Add 10 μL of 500 nM HGFR to each well of assay plate; the final HGFR concentration is 50 nM in a total final volume of 100 μL. • 8. Measure activity for 10 minutes at λ=340 nm and 37° C.

T1 sequence (P08581 974-1390 limits assumed): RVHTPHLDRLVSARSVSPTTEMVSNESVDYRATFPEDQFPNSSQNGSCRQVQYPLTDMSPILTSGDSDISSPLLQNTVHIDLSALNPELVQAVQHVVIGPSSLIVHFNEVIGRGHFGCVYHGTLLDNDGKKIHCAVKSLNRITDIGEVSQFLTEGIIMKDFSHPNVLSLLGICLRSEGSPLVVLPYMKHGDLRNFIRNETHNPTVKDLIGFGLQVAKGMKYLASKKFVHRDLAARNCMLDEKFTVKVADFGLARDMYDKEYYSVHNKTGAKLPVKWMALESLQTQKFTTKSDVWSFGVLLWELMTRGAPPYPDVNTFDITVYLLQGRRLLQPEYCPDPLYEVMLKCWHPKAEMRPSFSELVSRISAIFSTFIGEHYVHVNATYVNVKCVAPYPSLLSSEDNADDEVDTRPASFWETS

| SMILES | Ki [nM] |
| --- | --- |
| CC(C)Cn1cc(-c2cnc(N)c(OC(C)c3c(Cl)ccc(F)c3Cl)c2)cn1 (stereo not shown) [Example 22, 3-[1-(2,6-Dichloro-3-fluoro-phenyl)-ethoxy]-5-(1-isobutyl-1H-pyrazol-4-yl)-pyridin-2-ylamine] | 100 |
| CC(Oc1cc(-c2cnn(CC(C)(C)C)c2)cnc1N)c1c(Cl)ccc(F)c1Cl (stereo not shown) [Example 23, 3-[1-(2,6-Dichloro-3-fluoro-phenyl)-ethoxy]-5-[1-(2,2-dimethyl-propyl)-1H-pyrazol-4-yl]-pyridin-2-ylamine] | 120 |
| CCN(CC)CCNC(=O)C(C)(C)n1cc(-c2cnc(N)c(OC(C)c3c(Cl)ccc(F)c3Cl)c2)cn1 (stereo not shown) [Example 24, 2-(4-{6-Amino-5-[1-(2,6-dichloro-3-fluoro-phenyl)-ethoxy]-pyridin-3-yl}pyrazol-1-yl)-N-(2-diethylamino-ethyl)-isobutyramide] | 220 |
| CC(Oc1cc(-c2cnn(C3CCOC3)c2)cnc1N)c1c(Cl)ccc(F)c1Cl (stereo not shown) [Example 27, 3-[1-(2,6-Dichloro-3-fluoro-phenyl)-ethoxy]-5-[1-(tetrahydro-furan-3-yl)-1H-pyrazol-4-yl]-pyridin-2-ylamine] | 40 |
| CC(Oc1cc(-c2cnn(CC3CC4CCC3O4)c2)cnc1N)c1c(Cl)ccc(F)c1Cl (stereo not shown) [Example 28, 3-[1-(2,6-Dichloro-3-fluoro-phenyl)-ethoxy]-5-[1-(7-oxa-bicyclo[2.2.1]hept-2-ylmethyl)-1H-pyrazol-4-yl]-pyridin-2-ylamine] | 60 |
| CC(Oc1cc(-c2cnn(C(C)(C)C(=O)NCCCO)c2)cnc1N)c1c(Cl)ccc(F)c1Cl (stereo not shown) [Example 32, 2-(4-{6-Amino-5-[1-(2,6-dichloro-3-fluoro-phenyl)-ethoxy]-pyridin-3-yl}-pyrazol-1-yl)-N-(3-hydroxy-propyl)-isobutyramide] | 70 |
| Cc1nn(C(C)(C)C(=O)O)cc1-c1cnc(N)c(OC(C)c2c(Cl)ccc(F)c2Cl)c1 (stereo not shown) [Example 33, 2-(4-{6-Amino-5-[1-(2,6-dichloro-3-fluoro-phenyl)-ethoxy]-pyridin-3-yl}-3-methyl-pyrazol-1-yl)-2-methyl-propionic acid] | 130 |
| COCCNC(=O)C(C)(C)n1cc(-c2cnc(N)c(OC(C)c3c(Cl)ccc(F)c3Cl)c2)cn1 (stereo not shown) [Example 34, 2-(4-{6-Amino-5-[1-(2,6-dichloro-3-fluoro-phenyl)-ethoxy]-pyridin-3-yl}-pyrazol-1-yl)-N-(2-methoxy-ethyl)-isobutyramide] | 90 |
| CC(Oc1cc(-c2cnn(C(C)(C)C(=O)NCCO)c2)cnc1N)c1c(Cl)ccc(F)c1Cl (stereo not shown) [Example 35, 2-(4-{6-Amino-5-[1-(2,6-dichloro-3-fluoro-phenyl)-ethoxy]-pyridin-3-yl}-pyrazol-1-yl)-N-(2-hydroxy-ethyl)-isobutyramide] | 60 |
| Cc1nn(C(C)(C)C(=O)NCCCN(C)C)cc1-c1cnc(N)c(OC(C)c2c(Cl)ccc(F)c2Cl)c1 (stereo not shown) [Example 36, 2-(4-{6-Amino-5-[1-(2,6-dichloro-3-fluoro-phenyl)-ethoxy]-pyridin-3-yl}-3-methyl-pyrazol-1-yl)-N-(3-dimethylamino-propyl)-isobutyramide] | 90 |
| Cc1nn(C(C)(C)C(=O)NCCN2CCCC2)cc1-c1cnc(N)c(OC(C)c2c(Cl)ccc(F)c2Cl)c1 (stereo not shown) [Example 37, 2-(4-{6-Amino-5-[1-(2,6-dichloro-3-fluoro-phenyl)-ethoxy]-pyridin-3-yl}3-methyl-pyrazol-1-yl)-N-(2-pyrrolidin-1-yl-ethyl)-isobutyramide] | 70 |
| CC(Oc1cc(-c2cnn(C3CCN(C(C)C)CC3)c2)cnc1N)c1c(Cl)ccc(F)c1Cl (stereo not shown) [Example 38, 3-[1-(2,6-Dichloro-3-fluoro-phenyl)-ethoxy]-5-[1-(1-isopropyl-piperidin-4-yl)-1H-pyrazol-4-yl]-pyridin-2-ylamine] | 10 |
| CC(Oc1cc(-c2cnn(C3CCN(C)CC3)c2)cnc1N)c1c(Cl)ccc(F)c1Cl (stereo not shown) [Example 39, 3-[1-(2,6-Dichloro-3-fluoro-phenyl)-ethoxy]-5-[1-(1-methyl-piperidin-4-yl)-1H-pyrazol-4-yl]-pyridin-2-ylamine] | 10 |
| CC(Oc1cc(-c2cnn(C3CCN(C(=O)CO)CC3)c2)cnc1N)c1c(Cl)ccc(F)c1Cl (stereo not shown) [Example 40, 1-[4-(4-{6-Amino-5-[1-(2,6-dichloro-3-fluoro-phenyl)-ethoxy]-pyridin-3-yl}-pyrazol-1-yl)-piperidin-1-yl]-2-hydroxy-ethanone] | 10 |
| CC(=O)N1CCC(n2cc(-c3cnc(N)c(OC(C)c4c(Cl)ccc(F)c4Cl)c3)cn2)CC1 (stereo not shown) [Example 41, 1-[4-(4-{6-Amino-5-[1-(2,6-dichloro-3-fluoro-phenyl)-ethoxy]-pyridin-3-yl}-pyrazol 1-yl)-piperidin-1-yl]-ethanone] | 10 |
| CC(Oc1cc(-c2cnn(C3CCN(CC#N)CC3)c2)cnc1N)c1c(Cl)ccc(F)c1Cl (stereo not shown) [Example 42, [4-(4-{6-Amino-5-[1-(2,6-dichloro-3-fluoro-phenyl)-ethoxy]-pyridin-3-yl}-pyrazol-1-yl)-piperidin-1-yl]-acetonitrile] | 20 |
| CCN1CCC(n2cc(-c3cnc(N)c(OC(C)c4c(Cl)ccc(F)c4Cl)c3)cn2)CC1 (stereo not shown) [Example 43, 3-[1-(2,6-Dichloro-3-fluoro-phenyl)-ethoxy]-5-[1-(1-ethyl-piperidin-4-yl)-1H-pyrazol-4-yl]-pyridin-2-ylamine] | 10 |
| CC(Oc1cc(-c2cnn(C3CCN(C(=O)CN(C)C)CC3)c2)cnc1N)c1c(Cl)ccc(F)c1Cl (stereo not shown) [Example 44, 1-[4-(4-{6-Amino-5-[1-(2,6-dichloro-3-fluoro-phenyl)-ethoxy]-pyridin-3-yl}-pyrazol-1-yl)-piperidin-1-yl]-2-dimethylamino-ethanone] | 10 |
| CC(Oc1cc(-c2cnn(C3CCN(CC4CC4)CC3)c2)cnc1N)c1c(Cl)ccc(F)c1Cl (stereo not shown) [Example 45, 5-[1-(1-Cyclopropylmethyl-piperidin-4-yl)-1H-pyrazol-4-yl]-3-[1-(2,6-dichloro-3-fluoro-phenyl)-ethoxy]-pyridin-2-ylamine] | 10 |
| C[C@@H](Oc1cc(-c2cnn(C3CCN(C)CC3)c2)cnc1N)c1c(Cl)ccc(F)c1Cl [Example 46, 3-[(R)-1-(2,6-Dichloro-3-fluoro-phenyl)-ethoxy]-5-[1-(1-methyl-piperidin-4-yl)-1H-pyrazol-4-yl]-pyridin-2-ylamine] | 10 |
| C[C@@H](Oc1cc(-c2cnn(C3CCN(C(=O)CO)CC3)c2)cnc1N)c1c(Cl)ccc(F)c1Cl [Example 47, 1-[4-(4-{6-Amino-5-[(R)-1-(2,6-dichloro-3-fluoro-phenyl)-ethoxy]-pyridin-3-yl}-pyrazol-1-yl)-piperidin-1-yl]-2-hydroxy-ethanone] | 4 |
| CC(Oc1cc(-c2cnn(C3CCC3)c2)cnc1N)c1c(Cl)ccc(F)c1Cl (stereo not shown) [Example 49, 5-(1-Cyclobutyl-1H-pyrazol-4-yl)-3-[1-(2,6-dichloro-3-fluoro-phenyl)-ethoxy]-pyridin-2-ylamine] | 20 |
